Laboratory results: PubChem BioAssay AID1918942 (Molecular Pharmacology Branch, DTP, NCI, 2023)

Tested on: 743489-274-T-PDC complex spheroid viability
Assay: Anticancer human tumor 743489-274-T-PDC patient-derived renal cell carcinoma cell line growth inhibition
Details: for IC50: curve of first compound; for viability, T/C: stronger effect = lower value
In short: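 Multicellular complex spheroids of tumor cells with human endothelial cells (HUVEC) and mesenchymal stem cells; the LSD1 inhibitor iadademstat was combined with standard-of-care or investigational agents. Top concentration at or near clinical Cmax, half-log dilutions; final DMSO ≤0.25%.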

[1] = second compound 0.1 µM, first compound 0.00949 µM
[2] = second compound 0.1 µM, first compound 0.03 µM
[3] = second compound 0.1 µM, first compound 0.0949 µM
[4] = second compound 0.1 µM, first compound 0.3 µM
[5] = second compound 0.316 µM, first compound 0.00949 µM
[6] = second compound 0.316 µM, first compound 0.03 µM
[7] = second compound 0.316 µM, first compound 0.0949 µM
[8] = second compound 0.316 µM, first compound 0.3 µM
[9] = second compound 1 µM, first compound 0.00949 µM
[10] = second compound 1 µM, first compound 0.03 µM
[11] = second compound 1 µM, first compound 0.0949 µM
[12] = second compound 1 µM, first compound 0.3 µM
[13] = second compound 3.16 µM, first compound 0.00949 µM
[14] = second compound 3.16 µM, first compound 0.03 µM
[15] = second compound 3.16 µM, first compound 0.0949 µM
[16] = second compound 3.16 µM, first compound 0.3 µM
[17] = second compound 10 µM, first compound 0.00949 µM
[18] = second compound 10 µM, first compound 0.03 µM
[19] = second compound 10 µM, first compound 0.0949 µM
[20] = second compound 10 µM, first compound 0.3 µM
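Also: spheroids exposed to compounds for 7 days before readout.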
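For viability, T/C in this document: 100% = DMSO vehicle control wells.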

## CCN(c1cc(-c2ccc(CN3CCOCC3)cc2)cc(C(=O)NCc2c(C)cc(C)[nH]c2=O)c1C)C1CCOCC1 + NC1CC1c1ccc(-c2cccc(O)c2)cc1
Second compound 0.1 µM
  IC50: > 3000 nM
Second compound 0.316 µM
  IC50: > 3000 nM
Second compound 1 µM
  IC50: > 3000 nM
Second compound 3.16 µM
  IC50: > 3000 nM
Second compound 10 µM
  IC50: > 3000 nM
[1]
  viability, T/C: 104%
[2]
  viability, T/C: 110%
[3]
  viability, T/C: 95.6%
[4]
  viability, T/C: 94.2%
Second compound 0.1 µM, first compound 0.949 µM
  viability, T/C: 96.1%
Second compound 0.1 µM, first compound 3 µM
  viability, T/C: 102%
[5]
  viability, T/C: 111%
[6]
  viability, T/C: 98.3%
[7]
  viability, T/C: 102%
[8]
  viability, T/C: 96.3%
Second compound 0.316 µM, first compound 0.949 µM
  viability, T/C: 97.2%
Second compound 0.316 µM, first compound 3 µM
  viability, T/C: 111%
[9]
  viability, T/C: 104%
[10]
  viability, T/C: 107%
[11]
  viability, T/C: 103%
[12]
  viability, T/C: 102%
Second compound 1 µM, first compound 0.949 µM
  viability, T/C: 97.2%
Second compound 1 µM, first compound 3 µM
  viability, T/C: 104%
[13]
  viability, T/C: 96.6%
[14]
  viability, T/C: 104%
[15]
  viability, T/C: 92.8%
[16]
  viability, T/C: 99.7%
Second compound 3.16 µM, first compound 0.949 µM
  viability, T/C: 108%
Second compound 3.16 µM, first compound 3 µM
  viability, T/C: 102%
[17]
  viability, T/C: 101%
[18]
  viability, T/C: 100%
[19]
  viability, T/C: 106%
[20]
  viability, T/C: 101%
Second compound 10 µM, first compound 0.949 µM
  viability, T/C: 106%
Second compound 10 µM, first compound 3 µM
  viability, T/C: 104%

## Cn1ncnc1C1c2n[nH]c(=O)c3cc(F)cc(c23)NC1c1ccc(F)cc1 (stereo not given) + NC1CC1c1ccc(-c2cccc(O)c2)cc1
Second compound 0.1 µM
  IC50: > 100 nM
Second compound 0.316 µM
  IC50: > 100 nM
Second compound 1 µM
  IC50: > 100 nM
Second compound 3.16 µM
  IC50: > 100 nM
Second compound 10 µM
  IC50: > 100 nM
Second compound 0.1 µM, first compound 0.000316 µM
  viability, T/C: 118%
Second compound 0.1 µM, first compound 0.001 µM
  viability, T/C: 100%
Second compound 0.1 µM, first compound 0.00316 µM
  viability, T/C: 102%
Second compound 0.1 µM, first compound 0.01 µM
  viability, T/C: 82.8%
Second compound 0.1 µM, first compound 0.0316 µM
  viability, T/C: 92.4%
Second compound 0.1 µM, first compound 0.1 µM
  viability, T/C: 90.4%
Second compound 0.316 µM, first compound 0.000316 µM
  viability, T/C: 106%
Second compound 0.316 µM, first compound 0.001 µM
  viability, T/C: 106%
Second compound 0.316 µM, first compound 0.00316 µM
  viability, T/C: 101%
Second compound 0.316 µM, first compound 0.01 µM
  viability, T/C: 96.1%
Second compound 0.316 µM, first compound 0.0316 µM
  viability, T/C: 98.3%
Second compound 0.316 µM, first compound 0.1 µM
  viability, T/C: 94.1%
Second compound 1 µM, first compound 0.000316 µM
  viability, T/C: 93.1%
Second compound 1 µM, first compound 0.001 µM
  viability, T/C: 103%
Second compound 1 µM, first compound 0.00316 µM
  viability, T/C: 100%
Second compound 1 µM, first compound 0.01 µM
  viability, T/C: 93%
Second compound 1 µM, first compound 0.0316 µM
  viability, T/C: 84.6%
Second compound 1 µM, first compound 0.1 µM
  viability, T/C: 97%
Second compound 3.16 µM, first compound 0.000316 µM
  viability, T/C: 97.9%
Second compound 3.16 µM, first compound 0.001 µM
  viability, T/C: 104%
Second compound 3.16 µM, first compound 0.00316 µM
  viability, T/C: 97.8%
Second compound 3.16 µM, first compound 0.01 µM
  viability, T/C: 99.1%
Second compound 3.16 µM, first compound 0.0316 µM
  viability, T/C: 87.8%
Second compound 3.16 µM, first compound 0.1 µM
  viability, T/C: 96.9%
Second compound 10 µM, first compound 0.000316 µM
  viability, T/C: 93.8%
Second compound 10 µM, first compound 0.001 µM
  viability, T/C: 111%
Second compound 10 µM, first compound 0.00316 µM
  viability, T/C: 97.1%
Second compound 10 µM, first compound 0.01 µM
  viability, T/C: 105%
Second compound 10 µM, first compound 0.0316 µM
  viability, T/C: 100%
Second compound 10 µM, first compound 0.1 µM
  viability, T/C: 90.8%

## Nc1ncn(C2CC(O)C(CO)S2)c(=O)n1 (stereo not given) + NC1CC1c1ccc(-c2cccc(O)c2)cc1
Second compound 0.1 µM
  IC50: > 300 nM
Second compound 0.316 µM
  IC50: > 300 nM
Second compound 1 µM
  IC50: > 300 nM
Second compound 3.16 µM
  IC50: > 300 nM
Second compound 10 µM
  IC50: > 300 nM
Second compound 0.1 µM, first compound 0.000949 µM
  viability, T/C: 102%
Second compound 0.1 µM, first compound 0.003 µM
  viability, T/C: 94.5%
[1]
  viability, T/C: 105%
[2]
  viability, T/C: 85.3%
[3]
  viability, T/C: 76.2%
[4]
  viability, T/C: 74.8%
Second compound 0.316 µM, first compound 0.000949 µM
  viability, T/C: 95.4%
Second compound 0.316 µM, first compound 0.003 µM
  viability, T/C: 102%
[5]
  viability, T/C: 90.6%
[6]
  viability, T/C: 83.3%
[7]
  viability, T/C: 74.3%
[8]
  viability, T/C: 71.1%
Second compound 1 µM, first compound 0.000949 µM
  viability, T/C: 94.2%
Second compound 1 µM, first compound 0.003 µM
  viability, T/C: 89.6%
[9]
  viability, T/C: 81.5%
[10]
  viability, T/C: 77.4%
[11]
  viability, T/C: 73.5%
[12]
  viability, T/C: 73.2%
Second compound 3.16 µM, first compound 0.000949 µM
  viability, T/C: 96.5%
Second compound 3.16 µM, first compound 0.003 µM
  viability, T/C: 85.8%
[13]
  viability, T/C: 83%
[14]
  viability, T/C: 78.5%
[15]
  viability, T/C: 75.1%
[16]
  viability, T/C: 78%
Second compound 10 µM, first compound 0.000949 µM
  viability, T/C: 92.3%
Second compound 10 µM, first compound 0.003 µM
  viability, T/C: 85.1%
[17]
  viability, T/C: 86.9%
[18]
  viability, T/C: 89%
[19]
  viability, T/C: 67.8%
[20]
  viability, T/C: 64%
